Measured values taken from patent US20220380309A1, “CHOLINE METABOLISM INHIBITORS” (President and Fellows of Harvard College, priority 2018, published 2022).
Read-outs that look alike come from different tables or passages of the source.

Tested on: E. coli MS 200-1
Assay: Inhibition of TMA production in whole cells (LC-MS/MS assay for choline TMA-lyase activity, d9-TMA from d9-choline)
Type: cell-based
[1] = Escherichia coli, MS2001, Table 3, TMA generation, 1 mM choline-d9, anaerobic, 3.5 h, 37° C., read-out: EC50 against E. coli MS200-1
[2] = Escherichia coli, MS2001, 3.5 h, read-out: EC50 against E. coli MS200-1
[3] = Escherichia coli, MS2001, Table 2, inhibition of TMA-d9 production, 1 mM choline-d9, anaerobic, 3.5 hrs, 37° C., read-out: EC50
[4] = Table 2, inhibition of TMA-d9 production, 1 mM choline-d9, anaerobic, 3.5 hrs, 37° C., read-out: EC50

SMILES | EC50 [1] | other results
C[N+]1(C)CC[C@@H](O)C1 | 2100 µM | –
CN1CCC(=O)C1 | > 30000 µM | –
C[N+]1(C)CCCC(O)C1 (centres unmarked) | > 30000 µM | –
[2H]C1(O)C=CCN(C)C1 (centres unmarked) | – | EC50 (Table 3, TMA generation, 1 mM choline-d9, anaerobic, 3.5 h, 37° C., read-out: EC50 against E. coli MS200-1): 30 µM
C[N+]1(C)CC=C[C@H](O)C1 | 9 µM | –
C[N+]1(C)CC=C[C@@H](O)C1 | 22 µM | –
OC1C=CCN(CCCl)C1 (centres unmarked) | – | EC50 [2]: 113 µM
O[C@H]1C=CCN(CC2CC2)C1 | 319 µM | –
O[C@@H]1C=CCN(CC2CC2)C1 | 151 µM | –
COc1ccc(CN2CC=CC(O)C2)cc1 (centres unmarked) | 304 µM | –
COc1ccc(CN2CC=C[C@H](O)C2)cc1 | 383 µM | –
COc1ccc(CN2CC=C[C@@H](O)C2)cc1 | 141 µM | –
OC1C=CCN(Cc2ccco2)C1 (centres unmarked) | 197 µM | –
OC1C=CCN(Cc2cccs2)C1 (centres unmarked) | 225 µM | –
O[C@H]1C=CCN(Cc2cccs2)C1 | 191 µM | –
O[C@@H]1C=CCN(Cc2cccs2)C1 | 213 µM | –
OC1C=CCN(Cc2ccoc2)C1 (centres unmarked) | 256 µM | –
OC1C=CCN(Cc2ccsc2)C1 (centres unmarked) | 260 µM | –
OC1C=CCN(Cc2ccccn2)C1 (centres unmarked) | – | inhibition at 3000 µM (Escherichia coli, MS2001, Table 3, TMA generation of E. coli MS200-1, 3 mM compound): 96%
OC1C=CCN(CCc2ccccc2)C1 (centres unmarked) | 294 µM | –

SMILES | EC50 [1] | other results
O[C@H]1C=CCN(C2CCC2)C1 | 116 µM | –
O[C@@H]1C=CCN(C2CCC2)C1 | 193 µM | –
O[C@H]1C=CCN(C2CCCC2)C1 | 41 µM | –
O[C@@H]1C=CCN(C2CCCC2)C1 | 62 µM | –
OC1C=CCN(C2CCCC2Cl)C1 (centres unmarked) | – | EC50 [2]: 52 µM
COC(=O)C1CCCC1N1CC=CC(O)C1 (centres unmarked) | – | inhibition at 1000 µM (Escherichia coli, MS2001, Table 3, TMA generation of E. coli MS200-1, 1 mM compound): 62%
CC1CCC(N2CC=CC(O)C2)C1 (centres unmarked) | 49 µM | –
OC1C=CCN(C2CCSC2)C1 (centres unmarked) | 173 µM | –
COC1CCCCC1N1CC=CC(O)C1 (centres unmarked) | – | inhibition at 100 µM (Escherichia coli, MS2001, Table 3, TMA generation of E. coli MS200-1, 100 μM compound): 40%
OC1C=CCN(C2CCCCC2F)C1 (centres unmarked) | 12 µM | –
CC1CCCC(N2CC=CC(O)C2)C1 (centres unmarked) | 17 µM | –
CC1CCC(N2CC=CC(O)C2)CC1 (centres unmarked) | 42 µM | –
CC(=O)OC1C=CCN(C)C1 (centres unmarked) | 1790 µM | –
O[C@@H]1C=CCCC1 | – | EC50 [2]: 404 µM
O[C@H]1C=CCCC1 | – | EC50 [2]: 482 µM
CC1=CCCCC1O (centres unmarked) | 3800 µM | –
CC1=CC(O)CCC1 (centres unmarked) | 14100 µM | –
O[C@H]1C=CCOC1 | 112 µM | –
O[C@@H]1C=CCOC1 | 84 µM | –
CN1CCCCC1CO (centres unmarked) | 120 µM | –

SMILES | EC50 [1] | other results
OC1C=CCN(C2CCC2)C1 (centres unmarked) [Compound 1] | – | EC50 [3]: 154 µM
OC1C=CCN(C2CCCC2)C1 (centres unmarked) [Compound 2] | – | EC50 [3]: 54 µM
OC1C=CCN(C2CCCCC2)C1 (centres unmarked) [Compound 3] | – | EC50 [3]: 20 µM
OC1C=CCN(C2CCCCCC2)C1 (centres unmarked) [Compound 4] | – | EC50 [3]: 24 µM
CC1CCCC1N1CC=CC(O)C1 (centres unmarked) [Compound 5] | – | EC50 (Escherichia coli, MS2001, 3.5 h): 15 µM
CC1CCCCC1N1CC=CC(O)C1 (centres unmarked) [Compound 6] | – | EC50 [3]: 2 µM
O[C@@H]1C=CCN(C2CCCCC2)C1 [Compound 7] | – | EC50 [3]: 108 µM
O[C@H]1C=CCN(C2CCCCC2)C1 [Compound 8] | – | EC50 [3]: 14 µM
CC1CCCCC1N1CC=C[C@@H](O)C1 (some centres unmarked) [Compound 9] | – | EC50 [3]: 68 µM
CC1CCCCC1N1CC=C[C@H](O)C1 (some centres unmarked) [Compound 10] | – | EC50 [3]: 1.2 µM
CN1CC=CC(O)C1 (centres unmarked) [Compound 11] | – | EC50 [4]: 10 µM
CN1CC=C[C@H](O)C1 [Compound 12] | – | EC50 [4]: 10 µM
CN1CC=C[C@@H](O)C1 [Compound 13] | – | EC50 [4]: 15 µM
CN1CCC(O)C1 (centres unmarked) [Compound 14] | – | EC50 [3]: 6300 µM
CN1CCC(O)CC1 [Compound 15] | – | EC50 [3]: 4400 µM
CN1CCCC(=O)C1 [Compound 16] | – | EC50 [4]: 9500 µM
CN1CCCCC1CN (centres unmarked) [Compound 17] | – | EC50 [3]: 120 µM
CN1CCCC1CO (centres unmarked) [Compound 19] | – | EC50 [3]: 250 µM
CN1CCC[C@H]1CO [Compound 20] | – | EC50 [3]: 280 µM
